{
  "source": "paper PMC12624573",
  "about": "“The antigen presentation landscape of cytokine-stressed human pancreatic islets” (Cell reports, 2025)",
  "key": {"CD4+ T cells from PBMC": {"system": "CD4+ T cells from PBMC", "assay": "IFN-γ ELISpot, PBMC-derived in vitro expanded CD4+ T cell lines", "assay_type": "cell-based, human", "design": "key to T cell recognition by PBMC from a T1D donor (mark E) / T cell recognition by PBMC from a T1D donor: E: T cell recognition by PBMC from a T1D donor was tested and verified; see Figure 5", "settings": "for T1D Donor T cell response / non-T1D Donor T cell response: PBMC T cell lines, responding donors/donors tested; for IFN-γ ELISpot response of expanded CD4 T cells: control donor LSLP-153, line expanded with megapool HPAP-DR3 + SEC-DR3, tested with individual peptides (Figure S5C); for T cell recognition by PBMC from a T1D donor (mark E): MHC-II peptides, tested and verified, see Figure 5"}, "CD8+ T cells from PBMC": {"system": "CD8+ T cells from PBMC", "assay": "IFN-γ ELISpot, PBMC-derived in vitro expanded CD8+ T cell lines", "assay_type": "cell-based, human", "settings": "SEC (Secretory) A2 Peptides Set; PBMC T cell lines; responding donors/donors tested"}, "[1]": {"system": "islet-derived T cell lines", "assay": "Cytokine bead array (IFN-γ, TNF-α, IL-10), combined islet-derived T cell lines from donors with T1D"}, "[2]": {"settings": "SEC (Secretory) DR3 Peptides Set"}, "[3]": {"settings": "donor 6551, cytokine bead array, 48 h (Figures 6A–6C)"}, "[4]": {"settings": "PTM and unmodified native Pool Peptides (pool PTM 1), long peptides"}},
  "data": [
    {"sequence": "RPLNEQIAEAEEED [compound 187, secretory hormone eluted peptide from SCG3, pool SEC DR3]", "values": [
      {"measurement": "T1D Donor T cell response", "setting": "CD4+ T cells from PBMC; [2]", "result": "0/4"},
      {"measurement": "non-T1D Donor T cell response", "setting": "CD4+ T cells from PBMC; [2]", "result": "1/4"},
      {"measurement": "IFN-γ ELISpot response of expanded CD4 T cells", "setting": "CD4+ T cells from PBMC", "result": "IFN-γ responses"}
    ]},
    {"sequence": "RQRYEILTPNSIPK", "values": [
      {"measurement": "T cell recognition by PBMC from a T1D donor (mark E)", "setting": "CD4+ T cells from PBMC", "result": "RQR YEILTPNS IPK ^ E"}
    ]},
    {"sequence": "RQRYEILTPNSIPK [compound 26]", "values": [
      {"measurement": "T1D Donor T cell response", "setting": "CD4+ T cells from PBMC; DR3/DQ Set Peptides", "result": "2/4"},
      {"measurement": "non-T1D Donor T cell response", "setting": "CD4+ T cells from PBMC; DR3/DQ Set Peptides", "result": "0/2"}
    ]},
    {"sequence": "RSAAVLALL [compound 175]", "values": [
      {"measurement": "T1D Donor T cell response", "setting": "CD8+ T cells from PBMC", "result": "1/5"},
      {"measurement": "non-T1D Donor T cell response", "setting": "CD8+ T cells from PBMC", "result": "0/4"},
      {"measurement": "IFN-γ secretion, islet-derived T cell lines", "setting": "[1]; [3]", "result": "strong"},
      {"measurement": "IL-10 secretion, islet-derived T cell lines", "setting": "[1]; [3]", "result": "strong"},
      {"measurement": "TNF-α secretion, islet-derived T cell lines", "setting": "[1]; [3]", "result": "strong"},
      {"measurement": "islet derived T cell lines response to A2-S peptide pools or to single peptides", "setting": "[1]; donor 6551 lines, class I (A2) peptide pools or single peptides, IFNg, TNFa, IL-10 secretion", "result": "donor 6551 lines positive for IFNg, TNFa, IL10 secretion"}
    ]},
    {"sequence": "SANLHGGDLVANYPY [compound 155]", "values": [
      {"measurement": "T1D Donor T cell response", "setting": "CD4+ T cells from PBMC; HPAP-DR3 Pool Peptides", "result": "0/4"},
      {"measurement": "non-T1D Donor T cell response", "setting": "CD4+ T cells from PBMC; HPAP-DR3 Pool Peptides", "result": "0/4"}
    ]},
    {"sequence": "SQGLVDREKGLSAEPGWQA [compound 180, secretory hormone eluted peptide from CHGA, pool SEC DR3]", "values": [
      {"measurement": "T1D Donor T cell response", "setting": "CD4+ T cells from PBMC; [2]", "result": "0/4"},
      {"measurement": "non-T1D Donor T cell response", "setting": "CD4+ T cells from PBMC; [2]", "result": "1/4"},
      {"measurement": "IFN-γ ELISpot response of expanded CD4 T cells", "setting": "CD4+ T cells from PBMC", "result": "IFN-γ responses"}
    ]},
    {"sequence": "SSPLDNKLNVEDVDSTKN [compound 188, secretory hormone eluted peptide from SCG3, pool SEC DR3]", "values": [
      {"measurement": "T1D Donor T cell response", "setting": "CD4+ T cells from PBMC; [2]", "result": "0/4"},
      {"measurement": "non-T1D Donor T cell response", "setting": "CD4+ T cells from PBMC; [2]", "result": "1/4"},
      {"measurement": "IFN-γ ELISpot response of expanded CD4 T cells", "setting": "CD4+ T cells from PBMC", "result": "IFN-γ responses"}
    ]},
    {"sequence": "SVPHFSDEDKDPE [compound 147, non-modified native peptide, pool PTM DR3]", "values": [
      {"measurement": "T1D Donor T cell response", "setting": "CD4+ T cells from PBMC; [4]", "result": "0/4"},
      {"measurement": "non-T1D Donor T cell response", "setting": "CD4+ T cells from PBMC; [4]", "result": "0/4"}
    ]},
    {"sequence": "SVPHFXDEDKDPE [147-1, PTM peptide, X=phosphoserine, pool PTM DR3]", "values": [
      {"measurement": "T1D Donor T cell response", "setting": "CD4+ T cells from PBMC; [4]", "result": "0/4"},
      {"measurement": "non-T1D Donor T cell response", "setting": "CD4+ T cells from PBMC; [4]", "result": "0/4"}
    ]},
    {"sequence": "TPGNALVVDPKKPFRK", "values": [
      {"measurement": "T cell recognition by PBMC from a T1D donor (mark E)", "setting": "CD4+ T cells from PBMC", "result": "TPGNA LVVDPKKPF RK ^ E"}
    ]},
    {"sequence": "TPGNALVVDPKKPFRK [compound 13]", "values": [
      {"measurement": "T1D Donor T cell response", "setting": "CD4+ T cells from PBMC; DR3/DQ Set Peptides", "result": "3/4"},
      {"measurement": "non-T1D Donor T cell response", "setting": "CD4+ T cells from PBMC; DR3/DQ Set Peptides", "result": "1/2"},
      {"measurement": "IFN-γ ELISpot response of expanded CD4+ T cells", "setting": "CD4+ T cells from PBMC; control donor LSLP-074, frequencies ∼10-fold lower than for T1D-004 (Figures 5E, 5F, S5B)", "result": "responded"}
    ]},
    {"sequence": "VPGNALVVDPRRPFRK", "values": [
      {"measurement": "T cell recognition by PBMC from a T1D donor (mark E)", "setting": "CD4+ T cells from PBMC", "result": "VPGNA LVVDPRRPF RK ^ E"}
    ]},
    {"sequence": "VPGNALVVDPRRPFRK [compound 12]", "values": [
      {"measurement": "T1D Donor T cell response", "setting": "CD4+ T cells from PBMC; DR3/DQ Set Peptides", "result": "1/4"},
      {"measurement": "non-T1D Donor T cell response", "setting": "CD4+ T cells from PBMC; DR3/DQ Set Peptides", "result": "0/2"}
    ]},
    {"sequence": "VPIDIDKTKVQNIHPVESA [compound 4]", "values": [
      {"measurement": "T1D Donor T cell response", "setting": "CD4+ T cells from PBMC; DR3/DQ Set Peptides", "result": "0/4"},
      {"measurement": "non-T1D Donor T cell response", "setting": "CD4+ T cells from PBMC; DR3/DQ Set Peptides", "result": "0/2"}
    ]},
    {"sequence": "VPIDIDKTKVQNIHPVESA [compound 152]", "values": [
      {"measurement": "T1D Donor T cell response", "setting": "CD4+ T cells from PBMC; HPAP-DR3 Pool Peptides", "result": "0/4"},
      {"measurement": "non-T1D Donor T cell response", "setting": "CD4+ T cells from PBMC; HPAP-DR3 Pool Peptides", "result": "0/4"}
    ]},
    {"sequence": "WRPSLVPASAENVNKA", "values": [
      {"measurement": "T cell recognition by PBMC from a T1D donor (mark E)", "setting": "CD4+ T cells from PBMC", "result": "WRPS LVPASAENV NKA ^ E"}
    ]},
    {"sequence": "WRPSLVPASAENVNKA [compound 23]", "values": [
      {"measurement": "T1D Donor T cell response", "setting": "CD4+ T cells from PBMC; DR3/DQ Set Peptides", "result": "2/4"},
      {"measurement": "non-T1D Donor T cell response", "setting": "CD4+ T cells from PBMC; DR3/DQ Set Peptides", "result": "0/2"}
    ]},
    {"sequence": "YYNLEKDVKQFRRKDS [peptide 3]", "values": [
      {"measurement": "T1D Donor T cell response", "setting": "CD4+ T cells from PBMC; DR3/DQ Set Peptides", "result": "0/4"},
      {"measurement": "non-T1D Donor T cell response", "setting": "CD4+ T cells from PBMC; DR3/DQ Set Peptides", "result": "0/2"}
    ]},
    {"sequence": "YYYIQQDTKGDYQK [peptide 7]", "values": [
      {"measurement": "T1D Donor T cell response", "setting": "CD4+ T cells from PBMC; DR3/DQ Set Peptides", "result": "0/4"},
      {"measurement": "non-T1D Donor T cell response", "setting": "CD4+ T cells from PBMC; DR3/DQ Set Peptides", "result": "0/2"}
    ]}
  ]
}
